Test results from patent EP2712863B1, “Novel inhibitors of bacterial biofilms and related methods” (Sequoia Sciences, Inc., priority 2012, dated 2014).
Values after ≈ are worked out from the molar mass of the structure shown.

Key:
P. aeruginosa = test: Biofilm growth assay (spreading biofilm on semi-solid agar); format: cell-based; settings: Table 4, concentration that reduces the area of the spreading biofilm by >= 85%; for IC85: Pseudomonas aeruginosa, read-out: P. aeruginosa
E. coli = test: as above; format: cell-based; settings: Table 4, concentration that reduces the area of the spreading biofilm by >= 85%; for IC85: Escherichia coli, read-out: E. coli
Method in brief: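 Spreading (swarming) biofilm on semi-solid agar: E. coli on LB with 0.6% agar and 0.5% glucose; P. aeruginosa on M8 agar with 0.2% glucose, 100 µM CaCl2, 1 mM MgSO4, 0.5% Casamino acids. Compound in medium; 5 µL overnight culture spotted centrally, 37°C overnight. Value: concentration (µg/ml) giving ≥85% reduction in spread area versus negative control.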

| SMILES | IC85 (P. aeruginosa) [µg/mL] | IC85 (E. coli) [µg/mL] | P. aeruginosa (P. aeruginosa) [µg/mL] | E. coli (E. coli) [µg/mL] |
| --- | --- | --- | --- | --- |
| CC1(C)CC[C@]2(CN)CC[C@]3(C)C(=CCC4[C@@]5(C)Cc6c(n[nH]c6N)C(C)(C)C5CC[C@]43C)C2C1 (stereo partly drawn) [Compound 63, (4aS,6aS,6bR,13aR)-4a-(Aminomethyl)-2,2,6a,6b,9,9,13a-heptamethyl-2,3,4,4a,5,6,6a,6b,7,8,8a,9,11,13,13a,13b,14,15b-octadecahydro-1H-chryseno[1,2-f]indazol-12-amine] | 4 (≈ 8.35 µM) | 1 (≈ 2.09 µM) | – | – |
| CC1(C)CC[C@]2(C(=O)NO)CC[C@]3(C)C(=CCC4[C@@]5(C)Cc6c(n[nH]c6N)C(C)(C)C5CC[C@]43C)C2C1 (stereo partly drawn) [Compound 65, (4aS,6aS,6bR,13aR)-12-Amino-N-hydroxy-2,2,6a,6b,9,9,13a-heptamethyl-2,3,4,4a,5,6,6a,6b,7,8,8a,9,11,13,13a,13b,14,15b-octadecahydro-1H-chryseno[1,2-f]indazole-4a-carboxamide] | 0.25 (≈ 0.491 µM) | 0.25 (≈ 0.491 µM) | – | – |
| CC1(C)CC[C@]2(C(=O)Nc3cc(O)[nH]n3)CC[C@]3(C)C(=CCC4[C@@]5(C)Cc6c(n[nH]c6N)C(C)(C)C5CC[C@]43C)C2C1 (stereo partly drawn) [Compound 66, (4aS,6aS,6bR,13aR)-12-Amino-N-(5-hydroxy-1H-pyrazol-3-yl)-2,2,6a,6b,9,9,13a-heptamethyl-2,3,4,4a,5,6,6a,6b,7,8,8a,9,11,13,13a,13b, 14,15b-octadecahydro-1H-chryseno[1,2-f]indazole-4a-carboxamide] | 0.25 (≈ 0.435 µM) | 1 (≈ 1.74 µM) | – | – |
| CC1(C)CC[C@]2(c3nnco3)CC[C@]3(C)C(=CCC4[C@@]5(C)Cc6c(n[nH]c6N)C(C)(C)C5CC[C@]43C)C2C1 (stereo partly drawn) [Compound 67, (4aS,6aS,6bR,13aR)-2,2,6a,6b,9,9,13a-Heptamethyl-4a-(1,3,4-oxadiazol-2-yl)-2,3,4,4a,5,6,6a,6b,7,8,8a,9,11,13,13a,13b,14,15b-octadecahydro-1H-chryseno[1,2-]indazol-12-amine] | – | – | 1 | 2 |
| CC1(C)CC[C@]2(C(=O)Nc3cc(N)n[nH]3)CC[C@]3(C)C(=CCC4[C@@]5(C)Cc6c(n[nH]c6N)C(C)(C)C5CC[C@]43C)C2C1 (stereo partly drawn) [Compound 69, (4aS,6aS,6bR,13aR)-12-amino-N-(3-amino-1H-pyrazol-5-yl)-2,2,6a,6b,9,9,13a-heptamethyl-2,3,4,4a,5,6,6a,6b,7,8,8a,9,11,13,13a,13b,14,15b-octadecahydro-1H-chryseno[1,2-f]indazole-4a-carboxamide] | 1 (≈ 1.74 µM) | 1 (≈ 1.74 µM) | – | – |
| CC1(C)CC[C@]2(C(=O)Sc3nnc(N)[nH]3)CC[C@]3(C)C(=CCC4[C@@]5(C)Cc6c(n[nH]c6N)C(C)(C)C5CC[C@]43C)C2C1 (stereo partly drawn) [Compound 70, (4aS,6aS,6bR,13aR)-S-5-Amino-4H-1,2,4-triazol-3-yl 12-amino-2,2,6a,6b,9,9,13a-heptamethyl-2,3,4,4a,5,6,6a,6b,7,8,8a,9,11,13,13a,13b,14,15b-octadecahydro-1H-chryseno[1,2-f]indazole-4a-carbothioate] | 0.5 (≈ 0.845 µM) | 2 (≈ 3.38 µM) | – | – |
| CC1(C)CC[C@]2(C(=O)Nc3nnc(N)s3)CC[C@]3(C)C(=CCC4[C@@]5(C)Cc6c(n[nH]c6N)C(C)(C)C5CC[C@]43C)C2C1 (stereo partly drawn) [Compound 71, (4aS,6aS,6bR,13aR)-12-Amino-N-(5-amino-1,3,4-thiadiazol-2-yl)-2,2,6a,6b,9,9,13a-heptamethyl-2,3,4,4a,5,6,6a,6b,7,8,8a,9,11,13,13a,13b,14,15b-octadecahydro-1H-chryseno[1,2-f]indazole-4a-carboxamide] | 0.5 (≈ 0.845 µM) | 2 (≈ 3.38 µM) | – | – |
| Cn1nc([C@]23CCC(C)(C)C[C@H]2C2=CCC4[C@@]5(C)Cc6c(n[nH]c6N)C(C)(C)[C@@H]5CC[C@@]4(C)[C@]2(C)CC3)cc1N (stereo partly drawn) [Compound 72, (4aS,6aS,6bR,8aR,13aR,15bS)-4a-(5-Amino-1-methyl-1H-pyrazol-3-yl)-2,2,6a,6b,9,9,13a-heptamethyl-2,3,4,4a,5,6,6a,6b,7,8,8a,9,11,13,13a,13b,14,15b-octadecahydro-1H-chryseno[1,2-f]indazol-12-amine] | 1 (≈ 1.84 µM) | > 2 | – | – |
| CC1(C)CC[C@]2(C(=O)n3ccnc3N)CC[C@]3(C)C(=CCC4[C@@]5(C)Cc6c(n[nH]c6N)C(C)(C)C5CC[C@]43C)C2C1 (stereo partly drawn) [Compound 73, (2-Amino-1H-imidazol-1-yl)((4aS,6aS,6bR,13aR)-12-amino-2,2,6a,6b,9,9,13a-heptamethyl-2,3,4,4a,5,6,6a,6b,7,8,8a,9,11,13,13a,13b,14,15b-octadecahydro-1H-chryseno[1,2-f]indazol-4a-yl)methanone] | 1 (≈ 1.79 µM) | 1 (≈ 1.79 µM) | – | – |
| CC1(C)CC[C@]2(C(=O)Nc3nnc(S)s3)CC[C@]3(C)C(=CCC4[C@@]5(C)Cc6c(n[nH]c6N)C(C)(C)C5CC[C@]43C)C2C1 (stereo partly drawn) [Compound 74, (4aS,6aS,6bR,13aR)-12-Amino-N-(5-mercapto-1,3,4-thiadiazol-2-yl)-2,2,6a,6b,9,9,13a-heptamethyl-2,3,4,4a,5,6,6a,6b,7,8,8a,9,11,13,13a,13b,14,15b-octadecahydro-1H-chryseno[1,2-f]indazole-4a-carboxamide] | 1 (≈ 1.64 µM) | > 2 | – | – |
| CC1(C)CC[C@]2(c3nnc(S)[nH]3)CC[C@]3(C)C(=CCC4[C@@]5(C)Cc6c(n[nH]c6N)C(C)(C)C5CC[C@]43C)C2C1 (stereo partly drawn) [Compound 75, 5-((4aS,6aS,6bR,13aR)-12-Amino-2,2,6a,6b,9,9,13a-heptamethyl-2,3,4,4a,5,6,6a,6b,7,8,8a,9,11,13,13a,13b,14,15b-octadecahydro-1H-chryseno[1,2-f]indazol-4a-yl)-4H-1,2,4-triazole-3-thiol] | 0.5 (≈ 0.911 µM) | 1 (≈ 1.82 µM) | – | – |
| CC1(C)CC[C@]2(C(=O)n3cnc(S)n3)CC[C@]3(C)C(=CCC4[C@@]5(C)Cc6c(n[nH]c6N)C(C)(C)C5CC[C@]43C)C2C1 (stereo partly drawn) [Compound 76, ((4aS,6aS,6bR,13aR)-12-Amino-2,2,6a,6b,9,9,13a-heptamethyl-2,3,4,4a,5,6,6a,6b,7,8,8a,9,11,13,13a,13b,14,15b-octadecahydro-1H-chryseno[1,2-f]indazol-4a-yl)(3-mercapto-1H-1,2,4-triazol-1-yl)methanone] | 0.5 (≈ 0.867 µM) | 2 (≈ 3.47 µM) | – | – |
| Cc1nnc(S)n1NC(=O)[C@]12CCC(C)(C)CC1C1=CCC3[C@@]4(C)Cc5c(n[nH]c5N)C(C)(C)C4CC[C@@]3(C)[C@]1(C)CC2 (stereo partly drawn) [Compound 77, (4aS,6aS,6bR,13aR)-12-Amino-N-(3-mercapto-5-methyl-4H-1,2,4-triazol-4-yl)-2,2,6a,6b,9,9,13a-heptamethyl-2,3,4,4a,5,6,6a,6b,7,8,8a,9,11,13,13a,13b,14,15b-octadecahydro-1H-chryseno[1,2-f]indazole-4a-carboxamide] | 1 (≈ 1.65 µM) | 2 (≈ 3.3 µM) | – | – |
| CC1(C)CC[C@]2(c3nnc(O)s3)CC[C@]3(C)C(=CCC4[C@@]5(C)Cc6c(n[nH]c6N)C(C)(C)C5CC[C@]43C)C2C1 (stereo partly drawn) [Compound 78, 5-((4aS,6aS,6bR,13aR)-12-Amino-2,2,6a,6b,9,9,13a-heptamethyl-2,3,4,4a,5,6,6a,6b,7,8,8a,9,11,13,13a,13b,14,15b-octadecahydro-1H-chryseno[1,2-f]indazol-4a-yl)-1,3,4-thiadiazol-2-ol] | > 1 | 1 (≈ 1.82 µM) | – | – |
| CC1(C)CC[C@]2(C(=O)Nc3cc(S)n[nH]3)CC[C@]3(C)C(=CCC4[C@@]5(C)Cc6c(n[nH]c6N)C(C)(C)C5CC[C@]43C)C2C1 (stereo partly drawn) [Compound 79, (4aS,6aS,6bR,13aR)-12-Amino-N-(3-mercapto-1H-pyrazol-5-yl)-2,2,6a,6b,9,9,13a-heptamethyl-2,3,4,4a,5,6,6a,6b,7,8,8a,9,11,13,13a,13b,14,15b-octadecahydro-1H-chryseno[1,2-f]indazole-4a-carboxamide] | 0.25 (≈ 0.423 µM) | 0.5 (≈ 0.846 µM) | – | – |
| CC1(C)CC[C@]2(C(=O)Nc3nnc(S(N)(=O)=O)s3)CC[C@]3(C)C(=CCC4[C@@]5(C)Cc6c(n[nH]c6N)C(C)(C)C5CC[C@]43C)C2C1 (stereo partly shown) [Compound 80] | – | – | 1 | 1 |
| CC1(C)CC[C@]2(c3n[nH]c(O)c3CCO)CC[C@]3(C)C(=CCC4[C@@]5(C)Cc6c(n[nH]c6N)C(C)(C)C5CC[C@]43C)C2C1 (stereo partly drawn) [Compound 81, 3-((4aS,6aS,6bR,13aR)-12-Amino-2,2,6a,6b,9,9,13a-heptamethyl-2,3,4,4a,5,6,6a,6b,7,8,8a,9,11,13,13a,13b,14,15b-octadecahydro-1H-chryseno[1,2-f]indazol-4a-yl)-4-(2-hydroxyethyl)-1H-pyrazol-5-ol] | 0.5 (≈ 0.868 µM) | 1 (≈ 1.74 µM) | – | – |
| Cc1c([C@]23CCC(C)(C)CC2C2=CCC4[C@@]5(C)Cc6c(n[nH]c6N)C(C)(C)C5CC[C@@]4(C)[C@]2(C)CC3)n[nH]c1O (stereo partly drawn) [Compound 82, 3-((4aS,6aS,6bR,13aR)-12-Amino-2,2,6a,6b,9,9,13a-heptamethyl-2,3,4,4a,5,6,6a,6b,7,8,8a,9,11,13,13a,13b,14,15b-octadecahydro-1H-chryseno[1,2-f]indazol-4a-yl)-4-methyl-1H-pyrazol-5-ol] | 0.5 (≈ 0.916 µM) | 1 (≈ 1.83 µM) | – | – |
| CC1(C)CC[C@]2(c3n[nH]c(O)c3F)CC[C@]3(C)C(=CCC4[C@@]5(C)Cc6c(n[nH]c6N)C(C)(C)C5CC[C@]43C)C2C1 (stereo partly drawn) [Compound 83, 3-((4aS,6aS,6bR,13aR)-12-Amino-2,2,6a,6b,9,9,13a-heptamethyl-2,3,4,4a,5,6,6a,6b,7,8,8a,9,11,13,13a,13b,14,15b-octadecahydro-1H-chryseno[1,2-f]indazol-4a-yl)-4-fluoro-1H-pyrazol-5-ol] | 0.25 (≈ 0.455 µM) | 0.5 (≈ 0.909 µM) | – | – |
| CC1(C)CC[C@]2(c3n[nH]c(O)c3CCN)CC[C@]3(C)C(=CCC4[C@@]5(C)Cc6c(n[nH]c6N)C(C)(C)C5CC[C@]43C)C2C1 (stereo partly drawn) [Compound 84, 3-((4aS,6aS,6bR,13aR)-12-Amino-2,2,6a,6b,9,9,13a-heptamethyl-2,3,4,4a,5,6,6a,6b,7,8,8a,9,11,13,13a,13b,14,15b-octadecahydro-1H-chryseno[1,2-f]indazol-4a-yl)-4-(2-aminoethyl)-1H-pyrazol-5-ol] | 0.125 (≈ 0.217 µM) | 0.5 (≈ 0.87 µM) | – | – |
